Measurements published in publication PMC8896685 (PLoS ONE, 2022).
Numbered stars: 1 amine (or outer) side, 2 acyl side, 3 side chain; on linkers, the order of the positions; unused ones are H or OH. Square brackets hold non-standard residues; d marks the D form. Side chains are listed from the residue outwards. Peptide text beside a SMILES is read from it. * marks the point of attachment. C18 diacid = O=C(O)CCCCCCCCCCCCCCCCC(=O)*; γGlu = O=C(O)[C@H](CCC(=O)[*:2])N[*:1]; Desaminohistidyl = O=C(CCc1c[nH]cn1)*; Ac4c = NC1(C(=O)O)CCC1; AEEA = NCCOCCOCC(=O)O; Aib = CC(C)(N)C(=O)O

Assays:
[1] = test system: DIO mice; assay: Subchronic effect on glucose tolerance in DIO mice (IPGTT at steady state); type: in vivo, mouse
Experimental: (§1) Compound exposure was measured by Luminescence Oxygen Channeling Immunoassay (LOCI). […] The three reactants were combined with the analyte and formed a two-sited immuno-complex. Illumination of the complex released singlet oxygen […] from the donor beads. They were channeled into the acceptor beads and triggered a chemiluminescence response which was measured in an EnVision plate reader (PerkinElmer). The amount of light was proportional to the concentration of the analyte. As calibrators, a dilution line of the relevant analyte in rat/mouse plasma was included.
Animals were fasted for 5–6 h prior to intraperitoneal (i.p.) injection of 2 g/kg glucose. Blood glucose was analysed on whole blood from the tail vein of conscious animals using a Biosen S-line glucose analyzer (EKF-diagonistic Gmbh, Barleben, Germany) by the glucose oxidase method, at basal and at t = 15, 30, 60, 90, 180 min post glucose administration.
(§2) DIO mice received s.c. injections once daily for 4–5 weeks. Animals were dosed at different times of day to allow for assessment of glucose tolerance and other metabolic parameters at same time of day but at different time points in relation to dosing. […] Body composition was assessed in conscious animals by Magnetic Resonance (MR) scanning prior to initiation of treatment and at the end of the treatment period. Steady-state plasma parameters were assessed in non-fasted animals. Additional DIO mice (n = 4) were included for verification of 24-h peptide exposure in steady state. The mice received s.c. doses daily for 2 weeks (13 days) with 3 nmol/kg NN1177; 5 nmol/kg NN1151 or 5 nmol/kg NN1359, where after plasma sampled after t = 5 h (NN1177) or 6 h (NN1151, NN1359), 10 h (all co-agonists) and 24 h (all co-agonists) post-dosing was analysed for exposure.
(§3) Analogues were tested for subchronic effect in two different set-ups. […] The Cmax and Cmin animals were included in separate treatment groups and evaluated head-to-head for glucose tolerance and additional metabolic parameters at the end of the treatment period. […] IPGTT was performed as described above, but additionally blood was sampled from vena facialis of conscious animals at t = 210 min relative to the administration of glucose for exposure analysis.
(§4) IPGTT was performed as described above.

[2] = in vivo; settings: rat, iv
Experimental: as §1
At t=0, 5 min, 10 min, 30 min, 2 h, 4 h, 8 h, 12 h, 24 h, 32 h, 48 h, 56 h, and 72 h post dosing, plasma was sampled from the sublingual plexus for analysis of plasma exposure measured by LOCI.
Plasma concentration-time profiles were analysed using non-compartmental analysis (NCA) using Phoenix WinNonlin Professional 6.3 (Pharsight, Mountain View, CA, US). Calculations were performed using full concentration-time profile values or sparse sampling concentration-time values as appropriate.

[3] = test system: DIO mice; assay: Subchronic effect on body weight, body composition and food intake in DIO mice; type: in vivo, mouse
Description: Male C57Bl/6J mice were purchased from Jackson Lab (Bar Harbour, ME) or Taconic, (Denmark). Male Sprague Dawley rats were purchased from Taconic (Denmark). Lean animals were fed regular chow diet (Altromin 1324, Brogaarden, Denmark). Obese animals were fed a high-fat diet, 45% kcal from fat (D12492, Research Diets, New Brunswick, NJ) from the age of 4–6 weeks in order to obtain a diet induced obese (DIO) phenotype. Animals were housed under temperature and humidity-controlled conditions in a 12:12 hr light:dark cycle (lights on at 6 a.m.). Rats were housed three per cage during high fat feeding and were single housed five weeks prior to study. Mice were single housed, two per cage, with a partitioning wall where possible. All animals had ad libitum access to diet and water, except when fasted prior to experimental procedures. Animals were acclimatized to study conditions (energy expenditure cages, daily mock handling etc) at least one week prior to first dose. […] At the time of study, animals were 20–30 weeks old with a body weight of 45–50 g (DIO mice) or approximately 600 g (DIO rats).
as §2, §3, §4
All in vivo data are presented as mean ±SEM. […] For the comparison of NN1177, NN1151 and NN1359 on glucose tolerance, vehicle-subtracted values were used to enable comparison across studies.

[4] = steady state 5 weeks, 3 and 5 nmol/kg, Cmax (5 h post dosing), p<0.001
[5] = steady state, after 3 weeks daily s.c. dosing, Cmax (5 h post dosing), p<0.001
[6] = steady state, after 4 weeks daily s.c. dosing, Cmin (24 h post dosing)
[7] = steady state, after 4 weeks daily s.c. dosing, Cmin (24 h post dosing), p<0.001

With `CC(C)C[C@H](NC(=O)[C@H](Cc1ccc(O)cc1)NC(=O)[C@H](CCCCN)NC(=O)[C@H](CO)NC(=O)[C@H](CC(C)C)NC(=O)[C@H](CC(=O)O)NC(=O)[C@H](CO)NC(=O)[C@@H](NC(=O)[C@H](Cc1ccccc1)NC(=O)[C@@H](NC(=O)CNC(=O)[C@H](CCC(N)=O)NC(=O)C(C)(C)NC(=O)[C@@H](N)Cc1c[nH]cn1)[C@@H](C)O)[C@@H](C)O)C(=O)N[C@@H](CCC(=O)O)C(=O)N[C@@H](CO)C(=O)N[C@@H](CCCCN)C(=O)N[C@@H](CCCNC(=N)N)C(=O)N[C@@H](C)C(=O)N[C@@H](CCCNC(=N)N)C(=O)N[C@@H](CCC(=O)O)C(=O)N[C@@H](Cc1ccccc1)C(=O)N[C@H](C(=O)N[C@@H](CCC(N)=O)C(=O)N[C@@H](Cc1c[nH]c2ccccc12)C(=O)N[C@@H](CC(C)C)C(=O)N[C@@H](CC(C)C)C(=O)N[C@@H](CCCCNC(=O)CC[C@H](NC(=O)CC[C@H](NC(=O)[C@H](CO)NC(=O)[C@H](CCC(=O)O)NC(=O)[C@H](CO)NC(=O)CC[C@H](NC(=O)CC[C@H](NC(=O)CCCCCCCCCCCCCCCCC(=O)O)C(=O)O)C(=O)O)C(=O)O)C(=O)O)C(=O)N[C@H](C(N)=O)[C@@H](C)O)C(C)C` [NN1177] (H-H[Aib]QGTFTSDLSKYLESKRAREFVQWLLK([γGlu-γGlu-Ser-Glu-Ser-γGlu-γGlu-C18 diacid])T-NH2) the “Glucose tolerance (IPGTT) vs vehicle” value ([1]; steady state 5 weeks, 3 nmol/kg, Cmin (24 h post dosing), p<0.001) was “impaired”, the “Glucose tolerance (IPGTT) vs vehicle” value ([1]; steady state 5 weeks, 5 nmol/kg, Cmin (24 h post dosing)) was “at the level of vehicle” and the “Basal blood glucose vs vehicle” value [1, 4] was “improved”. The “Glucose tolerance (IPGTT) vs vehicle” value [1, 4] was “improved”, the “Basal blood glucose vs vehicle” value ([1]; steady state 5 weeks, Cmin (24 h post dosing), p<0.001) was “improved” and the half-life [2] was 480 min. For the same compound, the Body weight reduction ([3]; 3–5 nmol/kg s.c. once daily, 5 weeks) was 22–33%.

In the case of `CC[C@H](C)[C@H](NC(=O)[C@H](Cc1ccccc1)NC(=O)[C@H](CCC(=O)O)NC(=O)[C@H](CCCNC(=N)N)NC(=O)[C@H](C)NC(=O)[C@H](C)NC(=O)[C@H](CCC(N)=O)NC(=O)[C@H](CCC(=O)O)NC(=O)[C@H](CCC(=O)O)NC(=O)[C@H](CC(C)C)NC(=O)[C@H](Cc1ccc(O)cc1)NC(=O)[C@H](CCCCN)NC(=O)[C@H](CO)NC(=O)[C@@H](NC(=O)[C@H](CC(=O)O)NC(=O)[C@H](CO)NC(=O)[C@@H](NC(=O)[C@H](Cc1ccccc1)NC(=O)[C@@H](NC(=O)CNC(=O)[C@H](Cc1c[nH]cn1)NC(=O)C(C)(C)NC(=O)CCc1c[nH]cn1)[C@@H](C)O)[C@@H](C)O)C(C)C)C(=O)N[C@@H](C)C(=O)N[C@@H](Cc1c[nH]c2ccccc12)C(=O)N[C@@H](CC(C)C)C(=O)N[C@@H](CC(C)C)C(=O)N[C@@H](CCCCNC(=O)COCCOCCNC(=O)COCCOCCNC(=O)CC[C@H](NC(=O)CC[C@H](NC(=O)CCCCCCCCCCCCCCCCC(=O)O)C(=O)O)C(=O)O)C(=O)N[C@H](C(N)=O)[C@@H](C)O` [NN1359] (Desaminohistidyl-[Aib]HGTFTSDVSKYLEEQAAREFIAWLLK([AEEA-AEEA-γGlu-γGlu-C18 diacid])T-NH2), the “Glucose tolerance (IPGTT) vs vehicle” value [1, 5] is reported as “significantly improved”, the “Basal blood glucose vs vehicle” value [1, 6] is reported as “significantly improved” and the “Glucose tolerance (IPGTT) vs vehicle” value [1, 7] is reported as “significantly improved”. For the same compound, the half-life [2] was 660 min and the Body weight loss ([3]; 1–30 nmol/kg s.c. once daily, 4 weeks, plateau during last weeks) was 10–30%.

With `CC(C)C[C@H](NC(=O)[C@H](CC(C)C)NC(=O)[C@H](Cc1c[nH]c2ccccc12)NC(=O)[C@H](CCC(N)=O)NC(=O)[C@@H](NC(=O)[C@H](Cc1ccccc1)NC(=O)[C@H](CCC(=O)O)NC(=O)[C@H](CCCNC(=N)N)NC(=O)[C@H](C)NC(=O)[C@H](C)NC(=O)[C@H](CCCNC(=N)N)NC(=O)[C@H](CO)NC(=O)[C@H](CC(=O)O)NC(=O)[C@H](CC(C)C)NC(=O)[C@H](Cc1ccc(O)cc1)NC(=O)[C@H](CCCCN)NC(=O)[C@H](CO)NC(=O)[C@H](CC(C)C)NC(=O)[C@H](CC(=O)O)NC(=O)[C@H](CO)NC(=O)[C@@H](NC(=O)[C@H](Cc1ccccc1)NC(=O)[C@@H](NC(=O)CNC(=O)[C@H](CCC(=O)O)NC(=O)C(C)(C)NC(=O)[C@@H](N)Cc1c[nH]cn1)[C@@H](C)O)[C@@H](C)O)C(C)C)C(=O)N[C@@H](CC(N)=O)C(=O)N[C@@H](CCCCNC(=O)CC[C@H](NC(=O)CC[C@H](NC(=O)COCCOCCNC(=O)COCCOCCNC(=O)CC[C@H](NC(=O)CCCCCCCCCCCCCCCCC(=O)O)C(=O)O)C(=O)O)C(=O)O)C(N)=O` [GLP-1 reference] (H-H[Aib]EGTFTSDLSKYLDSRAAREFVQWLLNK([γGlu-γGlu-AEEA-AEEA-γGlu-C18 diacid])-NH2) the Body weight reduction ([3]; 5 nmol/kg s.c. once daily, 4–5 weeks, p<0.001) was 10%-17%.

In the case of `CC(C)C[C@H](NC(=O)[C@H](CC(=O)O)NC(=O)[C@H](CC(C)C)NC(=O)[C@H](Cc1ccc(O)cc1)NC(=O)[C@H](CCCCN)NC(=O)[C@H](CO)NC(=O)[C@H](CC(C)C)NC(=O)[C@H](CC(=O)O)NC(=O)[C@H](CO)NC(=O)[C@@H](NC(=O)[C@H](Cc1ccccc1)NC(=O)[C@@H](NC(=O)CNC(=O)[C@H](CCC(N)=O)NC(=O)C1(NC(=O)[C@@H](N)Cc2c[nH]cn2)CCC1)[C@@H](C)O)[C@@H](C)O)C(=O)N[C@@H](CCCNC(=N)N)C(=O)N[C@@H](CCCNC(=N)N)C(=O)N[C@@H](C)C(=O)N[C@@H](CCCNC(=N)N)C(=O)N[C@@H](CC(=O)O)C(=O)N[C@@H](Cc1ccccc1)C(=O)N[C@H](C(=O)N[C@@H](CCC(N)=O)C(=O)N[C@@H](Cc1c[nH]c2ccccc12)C(=O)N[C@@H](CC(C)C)C(=O)N[C@@H](CC(C)C)C(=O)N[C@@H](CCCCNC(=O)CC[C@H](NC(=O)CC[C@H](NC(=O)COCCOCCNC(=O)COCCOCCNC(=O)CC[C@H](NC(=O)CC[C@H](NC(=O)CCCCCCCCCCCCCCCCC(=O)O)C(=O)O)C(=O)O)C(=O)O)C(=O)O)C(=O)N[C@H](C(N)=O)[C@@H](C)O)C(C)C` [NN1151] (H-H[Ac4c]QGTFTSDLSKYLDLRRARDFVQWLLK([γGlu-γGlu-AEEA-AEEA-γGlu-γGlu-C18 diacid])T-NH2), the “Glucose tolerance (IPGTT) vs vehicle” value [1, 5] is reported as “improved”, the “Basal blood glucose vs vehicle” value [1, 6] is reported as “at the level of vehicle treated animals” and the “Glucose tolerance (IPGTT) vs vehicle” value [1, 7] is reported as “significantly impaired”. The half-life [2] was 240 min, the “Effect on body weight” value ([3]; 1 nmol/kg s.c. once daily, 4 weeks) was “No effect” and the “Effect on body weight / tolerated weight loss” value ([3]; 10 and 30 nmol/kg s.c. once daily, maximum ethically tolerated weight loss reached) was “majority of mice had to be terminated prematurely”.
